Measurements: ChEMBL document CHEMBL5543140 (J Med Chem, 2024)
Activity calls are given as the source filed them. The rule behind the calls is not given here.

Legend:
[1] = Unbound concentration in male Sprague-Dawley rat brain homogenate at 1 mg/kg, iv measured upto 8 hrs by LC-MS/MS analysis; assay type: ADME, organism-based
[2] = Volume of distribution at steady state in male Sprague-Dawley rat plasma at 1 mg/kg, iv measured upto 8 hrs by LC-MS/MS analysis; assay type: ADME, organism-based; conditions: read-out: Vdss
[3] = tested on: Mus musculus; assay: Psychedelic effect in C57BL/6J mouse assessed as maximal number of 5-HT2A receptor dependent head-twitch responses by visual observation at 1 mg/kg, sc (reference value: 3); assay type: functional
[4] = AUClast in beagle dog at 0.4 mg/kg, iv measured upto 24 hrs; assay type: ADME, organism-based, Canis lupus familiaris; conditions: in vivo
[5] = Initial plasma concentration in beagle dog at 0.4 mg/kg, iv measured upto 24 hrs; assay type: ADME, organism-based, Canis lupus familiaris
[6] = molecular target: 5-hydroxytryptamine receptor 7 (Homo sapiens, UniProt P34969); assay: Displacement of [3H]LSD from 5-HT7 receptor (unknown origin) assessed as inhibition binding
[7] = AUCinf in male Sprague-Dawley rat brain at 1 mg/kg, iv measured upto 8 hrs by LC-MS/MS analysis; assay type: ADME, organism-based
[8] = tested on: Hippocampus; assay: Induction of neuroplasticity in C57BL/6J mouse assessed as increase in EGR2 mRNA expression in brain hippocampus at 0.3 mg/kg, sc single dose by RT-PCR analysis; assay type: functional, organism-based
[9] = tested on: Hippocampus; assay: Induction of neuroplasticity in C57BL/6J mouse assessed as increase in IGF1 mRNA expression in brain hippocampus at 0.3 mg/kg, sc single dose by RT-PCR analysis; assay type: functional, organism-based
[10] = Cmax in beagle dog at 2 mg/kg, po measured upto 24 hrs; assay type: ADME, organism-based, Canis lupus familiaris; conditions: in vivo
[11] = tested on: Mus musculus; assay: Psychedelic effect in C57BL/6J mouse assessed as number of head-twitch responses by visual observation at 3 mg/kg, po measured for 3 mins at 5 to 25 min; assay type: functional; conditions: 0.05 h
[12] = MRTinf in male Sprague-Dawley rat CSF at 1 mg/kg, iv measured upto 8 hrs by LC-MS/MS analysis; assay type: ADME, organism-based, Cerebrospinal fluid
[13] = Ex vivo binding in C57BL/6J mouse brain frontal cortex assessed as specific binding [3H]Cimbi-36 at 1 mg/kg, sc measured after 5 mins by liquid scintillation counting analysis (reference value: 1092 +/- 53); assay type: functional
[14] = tested on: Mus musculus; assay: Locomotor activity in C57BL/6J mouse assessed as distance traveled at 1 mg/kg, po measured for 15 to 25 mins (reference value: 1710 +/- 120 cm) by Ethovision tracking system; assay type: functional; conditions: time 15-25 min
[15] = MRTlast in Wistar rat brain at 5 mg/kg, po measured upto 48 hrs; assay type: ADME, organism-based
[16] = tested on: Hippocampus; assay: Induction of neuroplasticity in C57BL/6J mouse assessed as increase in PSD-95 mRNA expression in brain hippocampus at 0.3 mg/kg, sc single dose by RT-PCR analysis; assay type: functional, organism-based
[17] = tested on: Mus musculus; assay: Psychedelic effect in C57BL/6J mouse assessed as number of 5-HT2A receptor dependent head-twitch responses by visual observation at 3 mg/kg, sc in presence of ketanserin 1 mg/kg, sc measured after 24 hrs; assay type: functional
[18] = Oral bioavailability in beagle dog at 2 mg/kg measured upto 24 hrs; assay type: ADME, organism-based, Canis lupus familiaris; conditions: in vivo
[19] = Tmax in Wistar rat brain at 5 mg/kg, po measured upto 48 hrs; assay type: ADME, organism-based
[20] = Drug excretion in Wistar rat urine at 5 mg/kg, po measured upto 48 hrs; assay type: ADME, organism-based; conditions: read-out: Drug excretion
[21] = molecular target: Adrenergic receptor alpha-2 (Rattus norvegicus) (UniProt P22086+P19328+P22909); assay: Displacement of [3H]RX 821002 from rat cerebral cortex alpha2 adrenergic receptor assessed as remaining activity at 10 uM after 60 mins by scintillation counting method relative to control
[22] = Half life in Wistar rat brain at 5 mg/kg, po measured upto 48 hrs; assay type: ADME, organism-based
[23] = Ex vivo binding in C57BL/6J mouse brain frontal cortex assessed as specific binding [3H]Cimbi-36 at 1 mg/kg, sc measured after 40 mins by liquid scintillation counting analysis (reference value: 1092 +/- 53); assay type: functional
[24] = tested on: Hippocampus; assay: Induction of neuroplasticity in C57BL/6J mouse assessed as increase in PSD-95 mRNA expression in brain hippocampus at 3 mg/kg, sc single dose by RT-PCR analysis; assay type: functional, organism-based
[25] = tested on: Mus musculus; assay: Induction of neuroplasticity in C57BL/6J mouse assessed as increase in Homer1 mRNA expression in brain frontal cortex at 0.3 mg/kg, sc single dose by RT-PCR analysis; assay type: functional, organism-based
[26] = Cmax in mouse C57BL/6J brain at 3 mg/kg, sc measured after 2 hrs; assay type: ADME, organism-based
[27] = Cmax in male Sprague-Dawley rat plasma at 1 mg/kg, iv measured upto 8 hrs by LC-MS/MS analysis; assay type: ADME, organism-based
[28] = Ex vivo binding in C57BL/6J mouse brain frontal cortex assessed as specific binding [3H]Cimbi-36 at 1 mg/kg, sc measured after 10 mins by liquid scintillation counting analysis (reference value: 1092 +/- 53); assay type: functional
[29] = Initial plasma concentration in male Sprague-Dawley rat at 1 mg/kg, iv measured upto 8 hrs by LC-MS/MS analysis; assay type: ADME, organism-based
[30] = Cmax in male Sprague-Dawley rat brain at 1 mg/kg, iv measured upto 8 hrs by LC-MS/MS analysis; assay type: ADME, organism-based
[31] = molecular target: T1, 5-hydroxytryptamine receptor 2C (Homo sapiens, UniProt P28335); assay: Displacement of [3H]LSD from human 5-HT2C receptor expressed in HEK293 cell membrane incubated for 90 mins by microbeta liquid scintillation counting method; assay type: cell membranes
T1 sequence (P28335 whole entry): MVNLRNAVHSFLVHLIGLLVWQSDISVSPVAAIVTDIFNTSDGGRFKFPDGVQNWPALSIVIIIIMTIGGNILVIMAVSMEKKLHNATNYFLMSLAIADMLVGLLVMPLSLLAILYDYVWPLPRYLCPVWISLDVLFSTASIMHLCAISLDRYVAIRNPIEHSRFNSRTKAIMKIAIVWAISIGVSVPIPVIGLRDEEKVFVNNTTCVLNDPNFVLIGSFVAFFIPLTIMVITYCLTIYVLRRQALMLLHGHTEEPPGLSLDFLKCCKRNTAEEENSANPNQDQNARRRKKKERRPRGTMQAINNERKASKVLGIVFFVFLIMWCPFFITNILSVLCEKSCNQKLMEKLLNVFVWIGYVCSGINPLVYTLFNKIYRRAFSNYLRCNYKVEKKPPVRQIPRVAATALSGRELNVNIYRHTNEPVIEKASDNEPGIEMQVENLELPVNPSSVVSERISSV

Chain of 5-hydroxytryptamine receptor 7 (P34969 whole entry): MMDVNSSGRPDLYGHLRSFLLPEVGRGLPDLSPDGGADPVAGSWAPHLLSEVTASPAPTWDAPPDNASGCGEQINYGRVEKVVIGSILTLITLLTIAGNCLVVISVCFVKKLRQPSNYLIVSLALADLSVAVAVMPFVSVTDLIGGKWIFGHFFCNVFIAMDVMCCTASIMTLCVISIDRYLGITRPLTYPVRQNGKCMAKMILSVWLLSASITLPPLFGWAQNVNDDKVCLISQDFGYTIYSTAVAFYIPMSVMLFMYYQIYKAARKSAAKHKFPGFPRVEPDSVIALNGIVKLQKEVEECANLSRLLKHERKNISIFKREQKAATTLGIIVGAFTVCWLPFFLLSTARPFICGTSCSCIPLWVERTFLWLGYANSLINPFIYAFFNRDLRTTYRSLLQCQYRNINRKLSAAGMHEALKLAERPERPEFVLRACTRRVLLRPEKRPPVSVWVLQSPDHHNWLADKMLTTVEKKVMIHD

With COc1cc([Se]C(F)(F)F)c(OC)cc1CCN.Cl the fraction unbound at 8 h [1] was 0.014, the Vd [2] was 5.67 L/kg and the Activity [3] was 17. For the same molecule, the AUC(0-t) at 24 h [4] was 366 ng·h/mL, the C0 at 24 h [5] was 121 ng/mL and the Ki [6] was 4.92 µM. For the same molecule, the AUC(0-inf) [7] was 3280 ng·h/mL, the Activity [8] was “inactive” and the Activity [9] was “inactive”. It also gave a Cmax [10] of 263 ng/mL, an Activity [11] of 25 and an MRT inf [12] of 1.51 h. It also gave an Activity [13] of 947, an Activity [14] of 2602 cm and an MRT last at 48 h [15] of 3.3 h. The Activity [16] was “inactive”, the Activity [17] was 0.17 and the bioavailability [18] was 138%. It also gave a Tmax [19] of 2 h, a dose excreted at 48 h [20] of 0.3% and an Activity [21] of 97%. The half-life [22] was 283 min, the Activity [23] was 732 and the Activity [24] was “inactive”. For the same molecule, the Activity [25] was “Active”, the Cmax [26] was 3160 ng/g and the Cmax [27] was 250 ng/mL. For the same molecule, the Activity [28] was 993, the C0 at 8 h [29] was 330 ng/mL and the Cmax [30] was 1490 ng/mL. The Ki [31] was 95 nM.
